Reference: ChEMBL document CHEMBL5608215, “Development of amphipathic derivatives of thymol and carvacrol as potent broad-spectrum antibacterial agents” (Eur J Med Chem, 2024)
Converted amounts (≈) assume the structure as drawn. The source made the active and inactive calls. The calls are words filed in the database; no cut-off is given here.

What was measured:
Type in all cases: functional
Staphylococcus aureus [1] = test: Inhibition of antibiotic-resistance in Staphylococcus aureus ATCC29213 at 0.5 times of MIC incubated for 20 days; details: time 20.0 day
Staphylococcus aureus [2] = test: Antibacterial activity against Staphylococcus aureus ATCC29213 by CLSI based serial dilution method
Staphylococcus aureus [3] = test: Antibacterial activity against methicillin-resistant Staphylococcus aureus 21-5 by CLSI based serial dilution method
Enterococcus faecalis = test: Antibacterial activity against Enterococcus faecalis ATCC29212 by CLSI based serial dilution method
Enterococcus = test: Antibacterial activity against vancomycin-resistant Enterococcus ATCC51299 by CLSI based serial dilution method
Escherichia coli = test: Antibacterial activity against Escherichia coli ATCC25922 by CLSI based serial dilution method
Pseudomonas aeruginosa = test: Antibacterial activity against Pseudomonas aeruginosa ATCC27853 by CLSI based serial dilution method

| Structure (SMILES) | inhibition (Staphylococcus aureus [1]) | MIC (Staphylococcus aureus [2]) | MIC (Staphylococcus aureus [3]) | MIC (Enterococcus faecalis) | MIC (Enterococcus) | MIC (Escherichia coli) | MIC (Pseudomonas aeruginosa) |
| --- | --- | --- | --- | --- | --- | --- | --- |
| CCn1cc(C(=O)O)c(=O)c2cc(F)c(N3CCNCC3)cc21 | inactive |  |  |  |  |  |  |
| CCCCCCCNC(=O)C[N+](C)(C)CCCCCOc1cc(C)ccc1C(C)C.[Br-] |  | 4 µg/mL | 16 µg/mL | 4 µg/mL | 8 µg/mL | 16 µg/mL | 32 µg/mL |
| Cc1ccc(C(C)C)c(OCCC[N+](C)(C)CC(=O)N(CC(C)C)CC(C)C)c1.[Br-] |  | 4 µg/mL | 8 µg/mL | 8 µg/mL | 16 µg/mL | 64 µg/mL | > 128 µg/mL |
| CCCCN(CCCC)C(=O)C[N+](C)(C)CCCCCOc1cc(C(C)C)ccc1C.[Br-] |  | 1 µg/mL | 2 µg/mL | 2 µg/mL | 32 µg/mL | 16 µg/mL | 32 µg/mL |
| Cc1ccc(C(C)C)c(OCCCCC[N+](C)(C)CC(=O)N(C(C)C)C(C)C)c1.[Br-] |  | 4 µg/mL | 2 µg/mL | 8 µg/mL | 16 µg/mL | 64 µg/mL | > 128 µg/mL |
| Cc1ccc(C(C)C)c(O)c1 [THYMOL] |  | > 128 µg/mL | > 128 µg/mL | > 128 µg/mL | > 128 µg/mL | 128 µg/mL (≈ 852 µM) | > 128 µg/mL |
| Cc1ccc(C(C)C)cc1OCCC[N+](C)(C)CC(=O)N(CC(C)C)CC(C)C.[Br-] |  | 4 µg/mL | 16 µg/mL | 16 µg/mL | 16 µg/mL | 64 µg/mL | > 128 µg/mL |
| CCCCCCCNC(=O)C[N+](C)(C)CCCCCOc1cc(C(C)C)ccc1C.[Br-] |  | 1 µg/mL | 4 µg/mL | 1 µg/mL | 2 µg/mL | 4 µg/mL | 8 µg/mL |
| CCCCNC(=O)C[N+](C)(C)CCCCOc1cc(C)ccc1C(C)C.[Br-] |  | 16 µg/mL | 16 µg/mL | 64 µg/mL | 128 µg/mL | 128 µg/mL | > 128 µg/mL |
| CC1(C)S[C@@H]2[C@H](NC(=O)[C@H](N)c3ccccc3)C(=O)N2[C@H]1C(=O)O [AMPICILLIN] |  | 0.5 µg/mL (≈ 1.43 µM) | 64 µg/mL (≈ 183 µM) | 0.5 µg/mL (≈ 1.43 µM) | 16 µg/mL (≈ 45.8 µM) | 4 µg/mL (≈ 11.4 µM) | > 128 µg/mL |
| CCCN(CCC)C(=O)C[N+](C)(C)CCCOc1cc(C(C)C)ccc1C.[Br-] |  | 32 µg/mL | 64 µg/mL | 32 µg/mL | 128 µg/mL | 128 µg/mL | > 128 µg/mL |
| CCCN(CCC)C(=O)C[N+](C)(C)CCCOc1cc(C)ccc1C(C)C.[Br-] |  | 16 µg/mL | 16 µg/mL | 32 µg/mL | 128 µg/mL | 128 µg/mL | > 128 µg/mL |
| CCCCCCNC(=O)C[N+](C)(C)CCCOc1cc(C(C)C)ccc1C.[Br-] |  | 4 µg/mL | 8 µg/mL | 4 µg/mL | 8 µg/mL | 16 µg/mL | 32 µg/mL |
| Cc1ccc(C(C)C)c(OCCCC[N+](C)(C)CC(=O)N(CC(C)C)CC(C)C)c1.[Br-] |  | 4 µg/mL | 4 µg/mL | 8 µg/mL | 16 µg/mL | 64 µg/mL | > 128 µg/mL |
| Cc1ccc(C(C)C)cc1OCCCC[N+](C)(C)CC(=O)N(C(C)C)C(C)C.[Br-] |  | 8 µg/mL | 16 µg/mL | 16 µg/mL | 32 µg/mL | 128 µg/mL | > 128 µg/mL |
| Cc1ccc(C(C)C)cc1OCCC[N+](C)(C)CC(=O)N(C(C)C)C(C)C.[Br-] |  | 16 µg/mL | 64 µg/mL | 32 µg/mL | 32 µg/mL | 128 µg/mL | > 128 µg/mL |
| CCCNC(=O)C[N+](C)(C)CCCCOc1cc(C)ccc1C(C)C.[Br-] |  | 64 µg/mL | 128 µg/mL | 128 µg/mL | > 128 µg/mL | > 128 µg/mL | > 128 µg/mL |
| CCCCCNC(=O)C[N+](C)(C)CCCOc1cc(C)ccc1C(C)C.[Br-] |  | 8 µg/mL | 16 µg/mL | 16 µg/mL | 32 µg/mL | 32 µg/mL | > 128 µg/mL |
| Cc1ccc(C(C)C)c(OCCCC[N+](C)(C)CC(=O)N(C(C)C)C(C)C)c1.[Br-] |  | 8 µg/mL | 16 µg/mL | 16 µg/mL | 32 µg/mL | 128 µg/mL | > 128 µg/mL |
| CCCCN(CCCC)C(=O)C[N+](C)(C)CCCCCOc1cc(C)ccc1C(C)C.[Br-] |  | 2 µg/mL | 2 µg/mL | 4 µg/mL | 8 µg/mL | 32 µg/mL | 128 µg/mL |
| CCCCCCN(CCCCCC)C(=O)C[N+](C)(C)CCCCOc1cc(C)ccc1C(C)C.[Br-] |  | > 128 µg/mL | > 128 µg/mL | > 128 µg/mL | > 128 µg/mL | > 128 µg/mL | > 128 µg/mL |

| Structure (SMILES) | inhibition (Staphylococcus aureus [1]) | MIC (Staphylococcus aureus [2]) | MIC (Staphylococcus aureus [3]) | MIC (Enterococcus faecalis) | MIC (Enterococcus) | MIC (Escherichia coli) | MIC (Pseudomonas aeruginosa) |
| --- | --- | --- | --- | --- | --- | --- | --- |
| Cc1ccc(C(C)C)c(OCCC[N+](C)(C)CC(=O)N(C(C)C)C(C)C)c1.[Br-] |  | 16 µg/mL | 16 µg/mL | 16 µg/mL | 32 µg/mL | 128 µg/mL | > 128 µg/mL |
| CCCCCCNC(=O)C[N+](C)(C)CCCCOc1cc(C)ccc1C(C)C.[Br-] |  | 2 µg/mL | 1 µg/mL | 4 µg/mL | 8 µg/mL | 16 µg/mL | 64 µg/mL |
| CCCCCNC(=O)C[N+](C)(C)CCCOc1cc(C(C)C)ccc1C.[Br-] |  | 8 µg/mL | 32 µg/mL | 16 µg/mL | 32 µg/mL | 32 µg/mL | 128 µg/mL |
| CCCCCNC(=O)C[N+](C)(C)CCCCCOc1cc(C(C)C)ccc1C.[Br-] |  | 4 µg/mL | 8 µg/mL | 8 µg/mL | 16 µg/mL | 16 µg/mL | 64 µg/mL |
| CCCCNC(=O)C[N+](C)(C)CCCCOc1cc(C(C)C)ccc1C.[Br-] |  | 16 µg/mL | 64 µg/mL | 32 µg/mL | 64 µg/mL | 64 µg/mL | > 128 µg/mL |
| CCCCNC(=O)C[N+](C)(C)CCCCCOc1cc(C)ccc1C(C)C.[Br-] |  | 8 µg/mL | 16 µg/mL | 16 µg/mL | 64 µg/mL | 64 µg/mL | > 128 µg/mL |
| Cc1ccc(C(C)C)c(OCCC[N+](C)(C)CC(=O)N2CCSCC2)c1.[Br-] |  | 64 µg/mL | 64 µg/mL | 128 µg/mL | > 128 µg/mL | > 128 µg/mL | > 128 µg/mL |
| Cc1ccc(C(C)C)c(OCCCC[N+](C)(C)CC(=O)N2CCOCC2)c1.[Br-] |  | > 128 µg/mL | > 128 µg/mL | > 128 µg/mL | > 128 µg/mL | > 128 µg/mL | > 128 µg/mL |
| CCCCCCNC(=O)C[N+](C)(C)CCCCCOc1cc(C)ccc1C(C)C.[Br-] |  | 2 µg/mL | 2 µg/mL | 2 µg/mL | 4 µg/mL | 8 µg/mL | 32 µg/mL |
| CCCCCNC(=O)C[N+](C)(C)CCCCCOc1cc(C)ccc1C(C)C.[Br-] |  | 8 µg/mL | 4 µg/mL | 16 µg/mL | 16 µg/mL | 32 µg/mL | 128 µg/mL |
| CCCCCCN(CCCCCC)C(=O)C[N+](C)(C)CCCOc1cc(C(C)C)ccc1C.[Br-] |  | 0.25 µg/mL | 8 µg/mL | 0.25 µg/mL | 1 µg/mL | 4 µg/mL | 16 µg/mL |
| CCCCN(CCCC)C(=O)C[N+](C)(C)CCCCOc1cc(C)ccc1C(C)C.[Br-] |  | 2 µg/mL | 2 µg/mL | 8 µg/mL | 8 µg/mL | 128 µg/mL | > 128 µg/mL |
| CCCN(CCC)C(=O)C[N+](C)(C)CCCCCOc1cc(C)ccc1C(C)C.[Br-] |  | 8 µg/mL | 8 µg/mL | 8 µg/mL | 16 µg/mL | 64 µg/mL | > 128 µg/mL |
| CCCN(CCC)C(=O)C[N+](C)(C)CCCCCOc1cc(C(C)C)ccc1C.[Br-] |  | 8 µg/mL | 16 µg/mL | 8 µg/mL | 16 µg/mL | 64 µg/mL | > 128 µg/mL |
| Cc1ccc(C(C)C)cc1OCCCC[N+](C)(C)CC(=O)N1CCSCC1.[Br-] |  | 32 µg/mL | 64 µg/mL | 64 µg/mL | 128 µg/mL | 128 µg/mL | > 128 µg/mL |
| CCCNC(=O)C[N+](C)(C)CCCOc1cc(C(C)C)ccc1C.[Br-] |  | 128 µg/mL | > 128 µg/mL | 128 µg/mL | > 128 µg/mL | > 128 µg/mL | > 128 µg/mL |
| CCCN(CCC)C(=O)C[N+](C)(C)CCCCOc1cc(C)ccc1C(C)C.[Br-] |  | 8 µg/mL | 16 µg/mL | 32 µg/mL | 64 µg/mL | 128 µg/mL | > 128 µg/mL |
| CCCCCCN(CCCCCC)C(=O)C[N+](C)(C)CCCCCOc1cc(C)ccc1C(C)C.[Br-] |  | > 128 µg/mL | > 128 µg/mL | > 128 µg/mL | > 128 µg/mL | > 128 µg/mL | > 128 µg/mL |
| CCCCCCNC(=O)C[N+](C)(C)CCCOc1cc(C)ccc1C(C)C.[Br-] |  | 4 µg/mL | 4 µg/mL | 4 µg/mL | 8 µg/mL | 16 µg/mL | 32 µg/mL |
| Cc1ccc(C(C)C)cc1OCCCCC[N+](C)(C)CC(=O)N1CCSCC1.[Br-] |  | 32 µg/mL | 128 µg/mL | 32 µg/mL | 64 µg/mL | 128 µg/mL | > 128 µg/mL |
